Assay results as given in patent US20200093890A1, “COMPOSITIONS AND METHODS FOR TREATING ALZHEIMER'S DISEASE” (CASE WESTERN RESERVE UNIVERSITY, priority 2017, published 2020).

Test system: APP processing
Experiment: Immunoblot of APP processing (FIG. 12)
Excerpt: FIG. 12 illustrates an immunoblot showing the effects ISP in combination with a γ-secretase inhibitor on APP processing compared to a γ-secretase inhibitor administered alone or a BACE1 inhibitor administered in combination with a γ-secretase inhibitor. […]

Substance: NH2GRKKRRQRRRCDMAEHTMERLKANDSLKLSQEYESI-NH2 [ISP]
- effect on APP processing (immunoblot) (ISP in combination with a γ-secretase inhibitor, compared to a γ-secretase inhibitor alone or a BACE1 inhibitor in combination with a γ-secretase inhibitor): substantially inhibited APP processing
- suppression of APP amyloidogenic processing by BACE1 (blocking PTPσ with wedge domain peptide mimetic, compared with PTPσ depletion): suppress APP amyloidogenic processing by BACE1, to a similar degree as PTPσ depletion
